A value given as a limit tells only on which side of the number the result lay.

The subject of the assay is antibody specific to carbamazepine. Kind of assay: Interference from other drugs in the carbamazepine ELISA assay. It counts as binding, rabbit. The note with it: chemical tested at 10.0 μg/ml; procedures of Example 4 (competitive ELISA); tested in duplicate. As for the experimental part:
Production of the antibodies of the present disclosure was performed with conventional methods. In brief, the immunogen as prepared in Example 2 was diluted to 1.0 mg/ml in phosphate buffered saline (PBS). 1.0 ml of the immunogen solution was injected into rabbits with complete Freunds adjuvant. After 2-3 weeks, the animal was injected with 1.0 ml of the same immunogen solution with incomplete Freunds adjuvant. The same injection was repeated every other week until acceptable titer was obtained.
The Carbamazepine ELISA was developed with the antibody generated from Example 3. This assay is a competitive micro-immunoassay for determination of carbamazepine in a fluid sample. Carbamazepine in the fluid sample and carbamazepine derivative linked with the enzyme (HRP)-conjugate compete for the finite sites of the antibody coated on the solid surface of the microwell. If little or no carbamazepine is present in the fluid sample, more enzyme labeled carbamazepine derivative will bind to the antibody on the solid surface. Conversely, if a large or a significant amount of carbamazepine is present in the fluid sample, less enzyme labeled carbamazepine derivative will bind to the antibody, producing less color signal. The absorbance produced is inversely proportional to the amount of carbamazepine in the fluid sample.
Interference from other drugs was tested using 30 frequently used chemicals and medicines, at concentrations of 10.0 μg/ml.
The samples were tested in duplicate, following the procedures used in Example 4. All 30 samples produced a negative test result. Thus, the immunoassay of the present disclosure is specific to carbamazepine.
On the technique in general: In an ELISA, binding on a coated surface is turned into a signal by an enzyme label.
As to `CN[C@@H](C)[C@H](O)c1ccccc1` [(L)-Ephedrine], the “Equivalent Carbamazepine Conc.” value is below 0.1 µg/mL.
Consider `CN1C(=O)CC[C@H]1c1cccnc1` [(−)-Cotinine], for which the “Equivalent Carbamazepine Conc.” value was below 0.1 µg/mL.
In the case of `CC(=O)Oc1ccccc1C(=O)O` [Acetylsalicylic Acid] it was below 0.1 µg/mL.
In the case of `CCC1(CCC(C)C)C(=O)NC(=O)NC1=O` [Amobarbital] it was below 0.1 µg/mL; in that of `CC1(C)S[C@@H]2[C@H](NC(=O)[C@H](N)c3ccccc3)C(=O)N2[C@H]1C(=O)O` [Ampicillin], below 0.1 µg/mL; in that of `Cn1c(=O)c2c(ncn2C)n(C)c1=O` [Caffeine], below 0.1 µg/mL.
In the case of `CN(C)CCCN1c2ccccc2Sc2ccc(Cl)cc21` [Chlorpromazine] it was below 0.1 µg/mL.
With `O=C(O)C1N=C(c2ccccc2)c2cc(Cl)ccc2NC1=O` (centres unmarked) [Clorazepate], the “Equivalent Carbamazepine Conc.” value was below 0.1 µg/mL.
For `CN1C(=O)CN=C(c2ccccc2)c2cc(Cl)ccc21` [Diazepam], the “Equivalent Carbamazepine Conc.” value was below 0.1 µg/mL.
The same measure for `COC(=O)[C@@H]1[C@H]2CC[C@@H](C[C@@H]1O)N2C` [Ecgonine Methyl Ester]: below 0.1 µg/mL; for `CC(C(=O)O)c1cccc(Oc2ccccc2)c1` (centres unmarked) [Fenoprofen]: below 0.1 µg/mL; for `Cc1ccc(C)c(OCCCC(C)(C)C(=O)O)c1` [Gemfibrozil]: below 0.1 µg/mL.
Turning to `O=C(O)c1cc(O)ccc1O` [Gentisic Acid], the “Equivalent Carbamazepine Conc.” value is below 0.1 µg/mL.
The same measure for `COc1ccc2c3c1O[C@H]1C(=O)CC[C@H]4[C@@H](C2)N(C)CC[C@]314` [Hydrocodone]: below 0.1 µg/mL; for `CC(C)Cc1ccc(C(C)C(=O)O)cc1` (centres unmarked) [Ibuprofen]: below 0.1 µg/mL; for `CN(C)CCCN1c2ccccc2CCc2ccccc21` [Imipramine]: below 0.1 µg/mL.
The same measure for `CCN(CC)CC(=O)Nc1c(C)cccc1C` [Lidocaine]: below 0.1 µg/mL.
In the case of `COc1ccc2cc([C@H](C)C(=O)O)ccc2c1` [Naproxen] it was below 0.1 µg/mL.
As for `NC(=O)c1cccnc1` [Niacinamide], the “Equivalent Carbamazepine Conc.” value is below 0.1 µg/mL.
For the compound `CNC[C@H](O)c1cccc(O)c1` [Phenylephrine], the “Equivalent Carbamazepine Conc.” value was below 0.1 µg/mL.
In the case of `CC(N)C(O)c1ccccc1` (centres unmarked) [Phenylpropanolamine], the “Equivalent Carbamazepine Conc.” value is below 0.1 µg/mL.
The same measure for `CCN(CC)CCNC(=O)c1ccc(N)cc1` [Procainamide]: below 0.1 µg/mL; for `CCN(CC)CCOC(=O)c1ccc(N)cc1` [Procaine]: below 0.1 µg/mL; for `C=C[C@H]1C[N@@]2CC[C@H]1C[C@@H]2[C@@H](O)c1ccnc2ccc(OC)cc12` [Quinidine]: below 0.1 µg/mL.
In the case of `Cc1cc(CC(=O)O)n(C)c1C(=O)c1ccc(Cl)cc1` [Zomepirac] it was below 0.1 µg/mL; in that of `NCCc1ccccc1` [beta-Phenylethylamine], below 0.1 µg/mL.
As to `CN[C@@H](C)Cc1ccccc1` [d-Methamphetamine], the “Equivalent Carbamazepine Conc.” value was below 0.1 µg/mL.
With Ecgonine, the “Equivalent Carbamazepine Conc.” value is below 0.1 µg/mL.
The same measure for Penicillin: below 0.1 µg/mL.

These data come from patent publication US8563713B2, “Antibodies specific to carbamazepine” (priority 2011, dated 2013).
